From patent publication EP0195316A1, “Quinolonecarboxylic acid derivatives” (KYORIN PHARMACEUTICAL CO., LTD., priority 1985, dated 1986)
Converted amounts (≈) assume the structure as drawn. Marks after values point to notes of the source that are not given here.

How the values were obtained:
S. aureus Smith = assay: In vivo antibacterial activity against systemic infections in mice; details: Staphylococcus aureus; S. aureus Smith systemic infection (i.p.), male ICR mice, oral administration an hour after infection; read-out: ED50
Method: (§1) The infections were produced by intraperitoneal injection of suspension of the bacterial cells. The compounds were administered orally at an hour after the injection. Five male ICR mice were used for each dosage. […] The efficacy of the present compound are shown in Table 4 in comparison with those of the reference compounds.

S. pneumoniae S-4288 = assay: as above; details: Streptococcus pneumoniae, S4288; S. pneumoniae S-4288 systemic infection (i.p.), male ICR mice, oral administration an hour after infection; read-out: ED50
Method: as §1

E. coli ML 4707 = assay: as above; details: Escherichia coli, ML4707; E. coli ML 4707 systemic infection (i.p.), male ICR mice, oral administration an hour after infection; read-out: ED50
Method: as §1

P. aeruginosa IID 1210 = assay: as above; details: Pseudomonas aeruginosa, IID1210; P. aeruginosa IID 1210 systemic infection (i.p.), male ICR mice, oral administration an hour after infection; read-out: ED50
Method: as §1

Subacute toxicity in dog = type: in vivo; details: beagle dogs, oral, 20 mg/kg/day for 8 days then 50 mg/kg/day for 7 days
Method: Subacute toxicity study of the present compound was carried out in beagledogs (10 weeks old, n=3). To animals 20 mg/kg/day of the present compound for 8 days and after that 50 mg/kg/day for 7 days was administered orally.

E. faecalis = assay: MIC, in vitro antibacterial activity (clinical isolates); type: cell-based; details: Enterococcus faecalis, No. of strains 5
[1] = Absorption and metabolism in dogs (HPLC); type: in vivo, beagle dogs
Method: A 2 mg dose of the present compound was administered to beagle dogs orally or intravenously, and the serum levels were measured by HPLC (High-performance liquid chromatography).

[2] = system: nalidixic acid-resistant Salmonella typhimurium TA98 strain (nal^r); assay: Mutagenicity, reverse mutation assay
Description: As for antibacterial agents, assessment of mutagenicity using bacteria is somewhat difficult because of their activity on the test bacteria.

in vivo [3] = details: mouse, iv
in vivo [4] = details: rat, po, 10 mg/kg
Acinetobacter sp. = assay: MIC, in vitro antibacterial activity (clinical isolates); type: cell-based; details: clinical isolates Acinetobacter sp., No. of strains 13; read-out: MIC
[5] = Repeated oral administration to dog (reference compound); type: in vivo

## NC1CCN(c2c(F)cc3c(=O)c(C(=O)O)cn(C4CC4)c3c2Cl)C1 (stereo not drawn) [Example 25, 7-(3-Amino-l-pyrrolidinyl)-8-chloro-l-cyclopropyl-6-fluoro-1,4-dihydro-4-oxo-3-quinolinecarboxylic acid]
S. aureus Smith
  ED50: 2 mg/kg
S. pneumoniae S-4288
  ED50: 13 mg/kg
E. coli ML 4707
  ED50: 0.9 mg/kg
P. aeruginosa IID 1210
  ED50: 2.9 mg/kg
Subacute toxicity in dog
  changes in body weight and general conditions: No remarkable changes in body weight and general conditions
  hematological examination and serum biochemical analysis: no abnormality with regard to hematological examination and serum biochemical analysis
E. faecalis
  MIC: 0.2 µg/mL (≈ 0.547 µM)
[1]; animals (dogs section)
  urinary metabolites: may be hardly metabolized
[1]; beagle dogs, 2 mg dose, HPLC
  Serum levels by oral route versus intravenous route: almost equal to those by intravenous route
[2]; 0.005 µg/plate, S9-mix +
  His^+ revertants per plate: 60
[2]; 0.005 µg/plate, S9-mix -
  His^+ revertants per plate: 28
[2]; 0.01 µg/plate, S9-mix +
  His^+ revertants per plate: 48
[2]; 0.01 µg/plate, S9-mix -
  His^+ revertants per plate: 29
[2]; 0.05 µg/plate, S9-mix +
  His^+ revertants per plate: 39*
[2]; 0.05 µg/plate, S9-mix -
  His^+ revertants per plate: 26
[2]; 0.1 µg/plate, S9-mix +
  His^+ revertants per plate: 6*
[2]; 0.1 µg/plate, S9-mix -
  His^+ revertants per plate: 16*
[2]; 0.5 µg/plate, S9-mix +
  His^+ revertants per plate: 0*
[2]; 0.5 µg/plate, S9-mix -
  His^+ revertants per plate: 0*
[2]; within measurable concentration, with and without the drug metabolic activation
  His revertant colonies compared with the solvent control: no increment of His revertant colonies
In vivo [3]
  LD50: 242 mg/kg
In vivo [4]; Excretion rate (% of dose) Bile
  dose excreted at 24 h: 13.4%
In vivo [4]; Excretion rate (% of dose) Urine
  dose excreted at 24 h: 21.7%
Acinetobacter sp.
  MIC: 0.1 µg/mL (≈ 0.273 µM)

## CC1CN(c2c(F)cc3c(=O)c(C(=O)O)cn(C4CC4)c3c2Cl)CCN1 (stereo not shown) [Ref.2, 8-Chloro-1-cyclopropyl-6-fluoro-1,4-dihydro-7-(3-methyl-1-piperazinyl)-4-oxo-3-quinolinecarboxylic acid]
E. faecalis
  MIC: 0.78 µg/mL (≈ 2.05 µM)
[5]
  GPT and TTT (hepatoxicity): marked elevation of GPT and decrease of TTT
  side effect on central nervous system: strong vomiting and clonic convulsion
Acinetobacter sp.
  MIC: 0.78 µg/mL (≈ 2.05 µM)
